Assay results: PMC8755562 (European Journal of Medicinal Chemistry, 2022)

Target: recombinant human (rh)ACE2 (Homo sapiens, UniProt Q9BYF1)
Test: fluorogenic exopeptidase assay
Type: biochemical

Sequence of recombinant human (rh)ACE2 (Q9BYF1 18-740 limits assumed): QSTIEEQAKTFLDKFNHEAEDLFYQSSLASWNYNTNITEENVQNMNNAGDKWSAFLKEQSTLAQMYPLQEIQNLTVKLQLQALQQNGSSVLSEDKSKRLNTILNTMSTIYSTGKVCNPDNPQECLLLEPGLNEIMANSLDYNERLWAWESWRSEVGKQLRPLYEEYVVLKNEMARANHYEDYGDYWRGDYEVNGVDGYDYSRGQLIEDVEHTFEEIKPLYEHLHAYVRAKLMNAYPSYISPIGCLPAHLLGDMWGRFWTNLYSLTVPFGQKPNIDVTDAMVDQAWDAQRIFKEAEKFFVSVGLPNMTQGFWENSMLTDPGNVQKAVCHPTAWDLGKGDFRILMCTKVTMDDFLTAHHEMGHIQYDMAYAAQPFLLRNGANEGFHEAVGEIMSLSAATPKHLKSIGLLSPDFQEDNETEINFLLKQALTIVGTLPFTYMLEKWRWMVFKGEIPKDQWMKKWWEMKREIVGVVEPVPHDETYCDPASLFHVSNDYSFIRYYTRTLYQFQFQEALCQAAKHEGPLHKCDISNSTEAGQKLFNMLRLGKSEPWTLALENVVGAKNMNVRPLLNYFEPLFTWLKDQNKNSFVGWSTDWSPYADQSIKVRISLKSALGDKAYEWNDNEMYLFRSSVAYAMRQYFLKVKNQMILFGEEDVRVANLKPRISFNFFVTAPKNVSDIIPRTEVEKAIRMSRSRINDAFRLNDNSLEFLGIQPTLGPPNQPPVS

Row | SMILES | IC50 [µM]
1 | CC(C)C[C@H](N[C@@H](Cc1cncn1Cc1cc(Cl)cc(Cl)c1)C(=O)O)C(=O)O [MLN-4760] | 0.0297
2 | CC(C)C[C@H](N[C@@H](Cc1cncn1Cc1ccc(N)cc1)C(=O)O)C(=O)O [compound 1, (S)-2-(((S)-2-(1-(4-aminobenzyl)-1H-imidazol-5-yl)-1-carboxyethyl)amino)-4-methylpentanoic acid] | 0.0113
